Experimental data taken from PMC10301603, “Potent and Selective Benzothiazole-Based Antimitotics with Improved Water Solubility: Design, Synthesis, and Evaluation as Novel Anticancer Agents” (Pharmaceutics, 2023).
Each block holds one compound with its values, some of them ahead of it.

Assays:
tumor cell lines = assay: Cell growth inhibition assay (MTT), summary statements over several cell lines; type: cell-based; conditions: glioblastoma cell lines; read-out: antiproliferative IC50
Method: Cells were plated in 96-well plates (100 µL/well) at the following concentrations: 30,000 cells/mL (HepG2, U87 MG, T98G, C6, LNCaP, PC3, and HT-29 cells) or 15,000 cells/mL (HeLa and MCF-7 cells). Previous experiments were performed to choose the optimal cell concentration (70–80% confluence) and avoid the formation of cell aggregates. Cells were incubated in complete DMEM or RPMI 1640 medium (see above) at 37 °C and 5% CO2 atmosphere for 24 h to allow for cell attachment to the plate. Then, every compound was added (10 µL/well) to a final concentration of 10 µM. Non-treated cells were used as negative controls. The antiproliferative activity of compounds was measured 72 h after the treatments using the MTT reagent (3-[4,5-dimethylthiazol-2-yl]-2,5-diphenyltetrazolium bromide), (MTT Thiazolyl Blue Tetrazolium Bromide, Sigma-Aldrich, St. Louis, MO, USA) dissolved in PBS at 5 mg/mL. Compounds showing antiproliferative effects at 10 µM were selected to determine their IC50 value. For that purpose, compounds were used at different concentrations ranging from 10^−10 to 10^−2 M. Measurements were performed in triplicate, and each experiment was repeated three times. The IC50 value was determined for every compound using Origin software (OriginLab, Washington, USA). To study the sensitivity to MDR efflux pumps of compounds, the IC50 values were determined by following the same procedure but in the presence of verapamil (final concentration of 10 µM).

HT-29 cells = assay: Cell growth inhibition (MTT) in the presence of 10 µM verapamil (sensitivity to MDR efflux pumps); type: cell-based, human; conditions: 10 µM verapamil (P-gp/MDR1 inhibitor)
HEK-293 cells = assay: Cell growth inhibition assay (MTT), non-tumorigenic cells; type: cell-based, human; conditions: non-tumorigenic cell line
In short: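 Following overnight (24 h) attachment, cultures received serial compound concentrations from 10^−10 to 10^−2 M and were incubated 72 h before MTT viability measurement. Where efflux-pump sensitivity was tested, IC50 was redetermined with 10 µM verapamil present.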

MCF7 cells = assay: Cell cycle analysis (PI, flow cytometry); type: cell-based, human; conditions: 8 and 14 100 nM, 9 500 nM
Method: (§1) An amount of 8 × 10^4 cells/mL (HeLa, MCF7, or U87 MG cells) were seeded in 6-well plates (2 mL/well) and incubated in complete DMEM medium (see above) at 37 °C and 5% CO2 atmosphere for 24 h. Then, the medium was replaced with fresh complete DMEM in the presence or absence of the selected compounds (8, 9, and 14). The concentration of the compounds was selected according to their IC50 value for the antiproliferative activity in each cell line (see above, Section 2.4.4). HeLa cells were treated with 200 nM of compounds 8 and 14 and 500 nM of compound 9; MCF7 cells were treated with 100 nM of compounds 8 and 14 and 500 nM of compound 9; and U87 MG cells were treated with 50 nM of compound 8 and 100 nM of compounds 9 and 14. Untreated cells were used as negative controls. Cells were harvested 24, 48, or 72 h following treatment and fixed in ice-cold ethanol/PBS (7:3) overnight. Cells were then washed twice with PBS, suspended in PBS, and incubated overnight in darkness with 0.2 mg/mL RNase A (Sigma-Aldrich, St. Louis, MO, USA), 50 µg/mL propidium iodide (Sigma-Aldrich, St. Louis, MO, USA), and Triton 10× at room temperature. BD Accuri™ C6 Plus Flow Cytometer (BD Biosciences) was used to analyze samples, and BD Accuri™ C6 Software (version 1.0.264.21) was used for data analysis.

HeLa cells = assay: Cell cycle analysis (PI, flow cytometry); type: cell-based, human; conditions: 8 and 14 200 nM, 9 500 nM
Method: as §1

- IC50 (tumor cell lines): 37 to 75 nM
- IC50 (HT-29 cells): 307 nM
SMILES: COc1ccc2nc(N(C=O)Cc3cccnc3)sc2c1 [Compound 14, N-(6-methoxybenzo[d]thiazol-2-yl)-N-(pyridin-3-ylmethyl)formamide]
- IC50 (HEK-293 cells; Homo sapiens, HEK293, 72 h after drug exposure): 8220 nM
- G2/M population (MCF7 cells; MCF7, 24 h): 40%
- G2/M population (MCF7 cells; MCF7, 48 h): 30–35%
- SubG0/G1 population (MCF7 cells; MCF7, 48 h): 27%
- G2/M population (MCF7 cells; MCF7, 72 h): 30–35%
- SubG0/G1 population (MCF7 cells; MCF7, 72 h): 33%
- G2/M population (HeLa cells; 24 h): 56%
- G2/M population (HeLa cells; 48 h): 60%
- sub G0/G1 population (HeLa cells; 48 h): 14–18%
- sub G0/G1 population (HeLa cells; 72 h): 43%

- IC50 (HT-29 cells): 215 nM
SMILES: CCNC(=O)N(Cc1cccnc1)c1nc2ccc(OC)cc2s1 [Compound 8]
- IC50 (HEK-293 cells; 72 h after drug exposure): 7970 nM
- G2/M population (MCF7 cells; MCF7, 24 h): 32%
- SubG0/G1 population (MCF7 cells; MCF7, 48 h): 9%
- SubG0/G1 population (MCF7 cells; MCF7, 72 h): 26%
- G2/M population (HeLa cells; 24 h): 80%
- G2/M population (HeLa cells; 48 h): 58%
- sub G0/G1 population (HeLa cells; 48 h): 14–18%
- sub G0/G1 population (HeLa cells; 72 h): 52%
